The values below come from PubChem BioAssay AID1259407 (Chemical Carcinogenesis Research Information System (CCRIS), 2018).

The test system of the data set is CCRIS mutagenicity, Ames/micronucleus/aberration tests. Description: CCRIS mutagenicity studies.
Where [1] appears, read: Test System: AMES SALMONELLA TYPHIMURIUM, Strain/Indicator: TA98, Metabolic Activation: NONE, Method: STANDARD PLATE.
Where [2] appears, read: Test System: AMES SALMONELLA TYPHIMURIUM, Strain/Indicator: TA100, Metabolic Activation: NONE, Method: STANDARD PLATE.
The mark [3] stands for this setting: Test System: AMES SALMONELLA TYPHIMURIUM, Strain/Indicator: TA1535, Metabolic Activation: NONE, Method: STANDARD PLATE.

Active and inactive are the calls of the source. How the calls were made is not given here.

As for `Nc1ncnc2nc(-c3ccc([N+](=O)[O-])cc3)[nH]c12`, the mutagenic call is “active; positive” (Test System: AMES SALMONELLA TYPHIMURIUM, Strain/Indicator: TA98(1,8-DNP), Metabolic Activation: NONE, Method: PREINCUBATION); “active; positive” (Test System: AMES SALMONELLA TYPHIMURIUM, Strain/Indicator: TA98(1,8-DNP), Metabolic Activation: RAT, LIVER, S-9, PCB, Method: PREINCUBATION); “active; positive” (Test System: AMES SALMONELLA TYPHIMURIUM, Strain/Indicator: TA98(NR), Metabolic Activation: NONE, Method: PREINCUBATION); “active; positive” (Test System: AMES SALMONELLA TYPHIMURIUM, Strain/Indicator: TA98(NR), Metabolic Activation: RAT, LIVER, S-9, PCB, Method: PREINCUBATION); “active; positive” (Test System: AMES SALMONELLA TYPHIMURIUM, Strain/Indicator: TA98, Metabolic Activation: NONE, Method: PREINCUBATION); “active; positive” (Test System: AMES SALMONELLA TYPHIMURIUM, Strain/Indicator: TA98, Metabolic Activation: RAT, LIVER, S-9, PCB, Method: PREINCUBATION). Moreover, the mutagenic call (Test System: AMES SALMONELLA TYPHIMURIUM, Strain/Indicator: TA100(1,8-DNP), Metabolic Activation: RAT, LIVER, S-9, PCB, Method: PREINCUBATION) was “inactive; negative”; the mutagenic call (Test System: AMES SALMONELLA TYPHIMURIUM, Strain/Indicator: TA100(NR), Metabolic Activation: NONE, Method: PREINCUBATION) is “inactive; negative”; the mutagenic call (Test System: AMES SALMONELLA TYPHIMURIUM, Strain/Indicator: TA100(NR), Metabolic Activation: RAT, LIVER, S-9, PCB, Method: PREINCUBATION) was “inactive; negative”; the mutagenic call (Test System: AMES SALMONELLA TYPHIMURIUM, Strain/Indicator: TA100, Metabolic Activation: NONE, Method: PREINCUBATION) is “active; positive”; the mutagenic call (Test System: AMES SALMONELLA TYPHIMURIUM, Strain/Indicator: TA100, Metabolic Activation: RAT, LIVER, S-9, PCB, Method: PREINCUBATION) was “active; positive”; the mutagenic call (Test System: AMES SALMONELLA TYPHIMURIUM, Strain/Indicator: YG1020, Metabolic Activation: NONE, Method: PREINCUBATION) is “active; positive”. Besides, the mutagenic call (Test System: AMES SALMONELLA TYPHIMURIUM, Strain/Indicator: YG1020, Metabolic Activation: RAT, LIVER, S-9, PCB, Method: PREINCUBATION) was “active; positive”; the mutagenic call (Test System: AMES SALMONELLA TYPHIMURIUM, Strain/Indicator: YG1021, Metabolic Activation: NONE, Method: PREINCUBATION) was “active; positive”; the mutagenic call (Test System: AMES SALMONELLA TYPHIMURIUM, Strain/Indicator: YG1021, Metabolic Activation: RAT, LIVER, S-9, PCB, Method: PREINCUBATION) was “active; positive”; the mutagenic call (Test System: AMES SALMONELLA TYPHIMURIUM, Strain/Indicator: YG1024, Metabolic Activation: NONE, Method: PREINCUBATION) was “active; positive”; the mutagenic call (Test System: AMES SALMONELLA TYPHIMURIUM, Strain/Indicator: YG1024, Metabolic Activation: RAT, LIVER, S-9, PCB, Method: PREINCUBATION) was “active; positive”; the mutagenic call (Test System: AMES SALMONELLA TYPHIMURIUM, Strain/Indicator: YG1025, Metabolic Activation: NONE, Method: PREINCUBATION) was “active; positive”. Moreover, the mutagenic call is, setting by setting: (Test System: AMES SALMONELLA TYPHIMURIUM, Strain/Indicator: YG1025, Metabolic Activation: RAT, LIVER, S-9, PCB, Method: PREINCUBATION) “active; positive”; (Test System: AMES SALMONELLA TYPHIMURIUM, Strain/Indicator: YG1026, Metabolic Activation: NONE, Method: PREINCUBATION) “active; positive”; (Test System: AMES SALMONELLA TYPHIMURIUM, Strain/Indicator: YG1026, Metabolic Activation: RAT, LIVER, S-9, PCB, Method: PREINCUBATION) “active; positive”; (Test System: AMES SALMONELLA TYPHIMURIUM, Strain/Indicator: YG1029, Metabolic Activation: NONE, Method: PREINCUBATION) “active; positive”; (Test System: AMES SALMONELLA TYPHIMURIUM, Strain/Indicator: YG1029, Metabolic Activation: RAT, LIVER, S-9, PCB, Method: PREINCUBATION) “active; positive”.

Turning to `c1ccc2cc3c(ccc4ccncc43)cc2c1`, the mutagenic call under setting [1] was “inactive; negative”; the mutagenic call (Test System: AMES SALMONELLA TYPHIMURIUM, Strain/Indicator: TA98, Metabolic Activation: RAT, LIVER, S-9, AROCLOR 1254, Method: STANDARD PLATE) is “active; positive”; the mutagenic call (Test System: AMES SALMONELLA TYPHIMURIUM, Strain/Indicator: TA100, Metabolic Activation: RAT, LIVER, S-9, AROCLOR 1254, Method: STANDARD PLATE) was “active; positive”.

As for `Cc1cc2c3ccccc3ccc2c2ccccc12`, the mutagenic call reads like this: (Test System: AMES SALMONELLA TYPHIMURIUM, Strain/Indicator: TA98, Metabolic Activation: RAT, LIVER, CYTOSOL, AROCLOR 1254, Method: STANDARD PLATE) “inactive; negative”; (Test System: AMES SALMONELLA TYPHIMURIUM, Strain/Indicator: TA98, Metabolic Activation: RAT, LIVER, MICROSOMES, AROCLOR 1254, Method: STANDARD PLATE) “inactive; negative”; (Test System: AMES SALMONELLA TYPHIMURIUM, Strain/Indicator: TA100, Metabolic Activation: RAT, LIVER, MICROSOMES, 6-METHYLCHRYSENE, Method: STANDARD PLATE) “inactive; negative”; (Test System: AMES SALMONELLA TYPHIMURIUM, Strain/Indicator: TA100, Metabolic Activation: RAT, LIVER, MICROSOMES, AROCLOR 1254, Method: STANDARD PLATE) “inactive; negative”; (Test System: AMES SALMONELLA TYPHIMURIUM, Strain/Indicator: TA100, Metabolic Activation: RAT, LIVER, MICROSOMES, Method: STANDARD PLATE) “inactive; negative”.

In the case of `Cc1cccc(Nc2ccncc2S(=O)(=O)NC(=O)NC(C)C)c1`, the mutagenic call under setting [1] was “inactive; negative”; the mutagenic call (Test System: AMES SALMONELLA TYPHIMURIUM, Strain/Indicator: TA98, Metabolic Activation: RAT, LIVER, S-9, Method: STANDARD PLATE) is “inactive; negative”; the mutagenic call under setting [2] was “inactive; negative”; the mutagenic call (Test System: AMES SALMONELLA TYPHIMURIUM, Strain/Indicator: TA100, Metabolic Activation: RAT, LIVER, S-9, Method: STANDARD PLATE) is “inactive; negative”; the mutagenic call under setting [3] was “inactive; negative”; the mutagenic call (Test System: AMES SALMONELLA TYPHIMURIUM, Strain/Indicator: TA1535, Metabolic Activation: RAT, LIVER, S-9, Method: STANDARD PLATE) is “inactive; negative”. Moreover, the mutagenic call (Test System: AMES SALMONELLA TYPHIMURIUM, Strain/Indicator: TA1537, Metabolic Activation: NONE, Method: STANDARD PLATE) was “inactive; negative”; the mutagenic call (Test System: AMES SALMONELLA TYPHIMURIUM, Strain/Indicator: TA1537, Metabolic Activation: RAT, LIVER, S-9, Method: STANDARD PLATE) was “inactive; negative”; the mutagenic call (Test System: E. COLI, Strain/Indicator: WP2 UVRA, Metabolic Activation: NONE, Method: STANDARD PLATE) is “inactive; negative”; the mutagenic call (Test System: E. COLI, Strain/Indicator: WP2 UVRA, Metabolic Activation: RAT, LIVER, S-9, Method: STANDARD PLATE) is “inactive; negative”.

`C1CC2OC2CCC2OC12` (stereo not drawn): the mutagenic call was “inactive; negative” under setting [2] and “inactive; negative” under setting [3].
